Like-named read-outs stand apart in the source and are kept apart here.
Legend:
Format in all cases: cell-based
[1] = target: T1, rTRPV1 (Rattus norvegicus, UniProt O35433); test: whole-cell voltage clamp, CHO cells expressing rTRPV1; block of odorant-evoked currents
T1 construct: gene Trpv1

[2] = target: T2, rTRPA1 (Rattus norvegicus, UniProt Q6RI86); test: whole-cell voltage clamp, CHO cells expressing rTRPA1; block of odorant-evoked currents
T2 construct: gene Trpa1

[3] = target: rTASK1 (K2P3, KCNK3) (Rattus norvegicus, UniProt O54912); test: two-electrode voltage clamp, Xenopus oocytes expressing rTASK1, dose-response
Chain of rTASK1 (K2P3, KCNK3) (O54912 whole entry): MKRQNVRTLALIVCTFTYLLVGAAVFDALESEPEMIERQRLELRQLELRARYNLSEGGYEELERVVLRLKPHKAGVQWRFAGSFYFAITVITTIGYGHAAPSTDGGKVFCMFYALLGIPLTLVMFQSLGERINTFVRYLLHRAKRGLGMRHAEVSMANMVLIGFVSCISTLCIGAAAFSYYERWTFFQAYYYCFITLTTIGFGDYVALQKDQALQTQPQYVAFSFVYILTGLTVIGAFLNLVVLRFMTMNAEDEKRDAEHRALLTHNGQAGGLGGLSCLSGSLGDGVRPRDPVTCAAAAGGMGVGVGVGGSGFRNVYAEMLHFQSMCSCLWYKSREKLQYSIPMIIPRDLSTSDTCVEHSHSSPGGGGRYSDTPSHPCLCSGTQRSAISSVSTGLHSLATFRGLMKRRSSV

T2 sequence (Q6RI86 whole entry): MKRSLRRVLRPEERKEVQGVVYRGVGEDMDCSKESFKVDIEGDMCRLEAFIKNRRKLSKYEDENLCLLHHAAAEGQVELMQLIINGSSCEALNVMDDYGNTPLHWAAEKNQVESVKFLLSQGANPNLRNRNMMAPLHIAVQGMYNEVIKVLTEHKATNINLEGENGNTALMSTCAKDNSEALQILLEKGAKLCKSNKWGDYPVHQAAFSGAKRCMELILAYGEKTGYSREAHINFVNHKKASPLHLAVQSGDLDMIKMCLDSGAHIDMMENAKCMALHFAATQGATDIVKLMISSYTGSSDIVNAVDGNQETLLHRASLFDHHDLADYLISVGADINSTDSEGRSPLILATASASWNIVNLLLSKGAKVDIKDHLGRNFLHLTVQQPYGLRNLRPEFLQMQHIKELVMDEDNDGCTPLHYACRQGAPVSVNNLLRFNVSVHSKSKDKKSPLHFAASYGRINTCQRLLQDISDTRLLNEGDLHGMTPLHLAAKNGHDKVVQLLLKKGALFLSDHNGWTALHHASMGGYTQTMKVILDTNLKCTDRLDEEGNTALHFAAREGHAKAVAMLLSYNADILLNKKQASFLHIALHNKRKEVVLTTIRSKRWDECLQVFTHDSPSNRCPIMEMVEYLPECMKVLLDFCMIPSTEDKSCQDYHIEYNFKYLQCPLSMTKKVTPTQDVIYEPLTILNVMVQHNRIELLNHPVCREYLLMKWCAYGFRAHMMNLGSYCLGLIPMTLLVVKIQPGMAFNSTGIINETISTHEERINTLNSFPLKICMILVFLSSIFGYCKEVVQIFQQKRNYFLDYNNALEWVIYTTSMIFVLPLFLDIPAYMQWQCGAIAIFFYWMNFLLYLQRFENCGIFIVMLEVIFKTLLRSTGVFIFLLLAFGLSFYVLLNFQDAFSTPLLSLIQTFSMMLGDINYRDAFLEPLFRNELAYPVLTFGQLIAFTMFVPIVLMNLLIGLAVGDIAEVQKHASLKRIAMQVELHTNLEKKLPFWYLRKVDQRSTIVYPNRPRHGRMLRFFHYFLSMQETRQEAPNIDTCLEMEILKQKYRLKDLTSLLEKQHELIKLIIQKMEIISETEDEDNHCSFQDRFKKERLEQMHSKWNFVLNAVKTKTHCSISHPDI
T1 sequence (O35433 whole entry): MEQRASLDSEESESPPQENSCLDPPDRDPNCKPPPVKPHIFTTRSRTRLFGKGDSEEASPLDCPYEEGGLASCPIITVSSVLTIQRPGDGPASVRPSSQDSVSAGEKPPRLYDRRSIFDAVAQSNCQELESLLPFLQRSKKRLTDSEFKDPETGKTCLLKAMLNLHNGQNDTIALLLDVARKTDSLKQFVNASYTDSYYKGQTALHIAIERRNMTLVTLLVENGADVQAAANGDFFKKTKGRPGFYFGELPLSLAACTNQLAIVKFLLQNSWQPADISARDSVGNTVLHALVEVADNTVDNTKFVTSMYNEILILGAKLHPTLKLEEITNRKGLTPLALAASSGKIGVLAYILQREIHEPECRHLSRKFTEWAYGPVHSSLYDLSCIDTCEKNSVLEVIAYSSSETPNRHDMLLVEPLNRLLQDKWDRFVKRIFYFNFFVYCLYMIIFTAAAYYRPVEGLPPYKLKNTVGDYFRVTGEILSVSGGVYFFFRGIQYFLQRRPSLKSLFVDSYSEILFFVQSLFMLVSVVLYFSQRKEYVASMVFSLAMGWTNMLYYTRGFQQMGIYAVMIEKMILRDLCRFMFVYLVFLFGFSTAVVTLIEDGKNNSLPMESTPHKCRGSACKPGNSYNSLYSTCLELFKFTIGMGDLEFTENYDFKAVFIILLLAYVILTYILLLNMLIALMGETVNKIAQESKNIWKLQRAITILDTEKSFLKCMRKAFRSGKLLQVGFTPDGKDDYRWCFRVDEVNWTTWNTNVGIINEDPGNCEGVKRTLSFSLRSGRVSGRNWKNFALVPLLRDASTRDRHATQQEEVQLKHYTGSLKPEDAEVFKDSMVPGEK

Oc1cc2c(cc1O)CN(C(=S)NCCc1ccc(Cl)cc1)CCC2 [CPZ, capsazepine]
whole-cell voltage clamp, CHO cells expressing rTRPV1; block of odorant-evoked c [1]: Co-administration of CPZ nearly completely inhibited all odorant-evoked outward currents

CC(C)c1ccc(NC(=O)Cn2cnc3c2c(=O)n(C)c(=O)n3C)cc1 [HC, HC-030031]
whole-cell voltage clamp, CHO cells expressing rTRPA1; block of odorant-evoked c [2]: Co-administration of HC nearly completely inhibited vanillin- and HTPA-evoked outward and inward currents

CC(C)=CCC/C(C)=C/CO [geraniol]
IC50 ([3]; read-out: IC50): 580 ± 90 µM

CC(=O)CCc1ccc2c(c1)OCO2 [heliotropyl acetone]
IC50 [3]: 890 ± 120 µM

Reference: PMC3804614, “Transient Receptor Potential Channels Encode Volatile Chemicals Sensed by Rat Trigeminal Ganglion Neurons” (PLoS ONE, 2013)
